Data from US20130072505A1, “6,9-Disubstituted Purine Derivatives and Their Use for Treating Skin” (priority 2006, published 2013).

Tested on: Salmonella typhimurium histidien auxotrophs TA98 and TA100
Test: Ames Test
Assay type: cell-based
Settings: 2.5 to 5000 μg/plate; presence and absence of rat liver S9
Description: Tests were carried out using DMSO as solvent and dose levels of 6-furfurylamino-9-(2-tetrahydropyranyl)purine at 2.5, 5.0, 15, 50, 500, 1500, and 5000 μg/plate based upon standard protocol and procedures (Ames et al., Mutation Research, 31, 347-364 (1975); Maron et al., Mutation Research, 113, 173-215 (1983)).

With `c1coc(CNc2ncnc3c2ncn3C2CCCCO2)c1` (stereo not shown) [6-furfurylamino-9-(2-tetrahydropyranyl)purine] the mutagenic responses was “no positive mutagenic responses”.
